Measured values published in patent US4504655A, “Substances potentiating the activity of antibiotics and their production” (Takeda Chemical Industries, Ltd., priority 1981, dated 1985).
Where “and” joins values, the source holds several entries; their conditions need not be identical. Equal values may be shown once. Entries after “also recorded” stand apart in the source; their conditions may differ. Where a name gives a salt, the structure may show the parent alone.

Legend:
Solubility = format: physicochemical
[1] = Stability in aqueous solution; format: physicochemical; settings: pH 3-9, heating at 60° C. for 10 minutes
Escherichia coli = assay: Observation of the culture broths under a phase contrast microscope; format: cell-based; settings: for Form of cells under phase contrast microscope: antibiotic alone, F2 or F3 not added
Experimental: (§1) To 8 ml of YAB medium (1.75% Difco antibiotic medium No. 3, 0.5% Difco yeast extract) containing 12% (w/v) of sucrose, there were added 1 ml of water, 50 μg/ml cephalexin solution or 10 μg/ml cefmenoxime solution, and the medium was inoculated with 1 ml of a preculture in YAB medium at an early logarithmic growth phase and incubated with shaking at 37° C. for 2 hours. Thereafter, the absorbance of the culture broth was measured at 600 nm using a Shimadzu-Bausch & Lomb Spectronic 20 colorimeter.

[2] = system: Escherichia coli IFO 12734; assay: Inhibition of growth of Escherichia coli in liquid culture (absorbance at 600 nm); format: cell-based
Experimental: Table 5: Inhibition of growth of Escherichia coli IFO 12734 in the copresence of F2 (obtained in Example 1) and cephalexin or cefmenoxime.
as §1

[3] = system: Proteus mirabilis ATCC 21100; assay: Antibiotic-potentiating activity, paper disc growth inhibition zone, Proteus mirabilis ATCC 21100; format: cell-based
Experimental: (§2) *The test was performed using a bouillon agar medium containing the
antibiotic as specified and a paper disc, 8 mm in diameter. […]
*The test was performed under the same conditions as noted for Table 1
except for the test organism and the concentration of each coexisting

[4] = system: Escherichia coli IFO 12734; assay: Antibiotic-potentiating activity, paper disc growth inhibition zone, Escherichia coli IFO 12734; format: cell-based
Experimental: The potency of the compound of the formula (II) can be determined, for instance, by the cup method or paper disc method using bouillon agar containing 0.05 μg/ml of cefmenoxime with Escherichia coli IFO 12734 as the test organism. […]
as §2
antibiotic as specified and a paper disc, 8 mm in diameter.
**A paper disc, 8 mm in diameter, was impregnated with 25 μl of the […]

[5] = system: Escherichia coli IFO 12734; assay: Inhibition of growth of Escherichia coli in liquid culture (absorbance at 600 nm); format: cell-based; remark: listed apart in the source
[6] = system: β-lactamase producing bacteria; settings: D. A. Leigh et al., 1981; cited from earlier work
β-lactamases = settings: D. A. Leigh et al., 1981; cited from earlier work
[7] = petroleum ether, hexane, diethyl ether, benzene, ethyl acetate and chloroform
[8] = F3 of Example 5, 1 μg/ml in test solution, no addition
[9] = F3 of Example 5, 5 μg/ml in test solution, no addition
[10] = F3 of Example 5, 25 μg/ml in test solution, no addition
[11] = F3 of Example 5, 125 μg/ml in test solution, no addition
[12] = F3 of Example 5, 1000 μg/ml in test solution, no addition

Compound: CC(=O)NC1C(OC2CC(C(=O)O)NC2CO)OC(CO)C(OS(=O)(=O)O)C1O (stereo not shown) [F3 monosodium salt]
- Solubility (Solubility; acetone): only sparingly soluble
- Solubility (Solubility; dimethyl sulfoxide): soluble
- Solubility (Solubility; ethanol and pyridine): only sparingly soluble
- Solubility (Solubility; methanol): soluble
- Solubility (Solubility; [7]): Insoluble
- Solubility (Solubility; water): readily soluble
- Stability [1]: Stable

Compound: CC(=O)NC1C(OC2CC(C(=O)O)NC2CO)OC(CO)C(OS(=O)(=O)O)C1O (stereo not shown) [F3]
- Swelling and bacteriolysis under phase contrast microscope (Escherichia coli; in the presence of cephalexin or cefmenoxime): partial swelling occurred and bacteriolysis proceeded
- Elongation of cells under phase contrast microscope (Escherichia coli; in the presence of cephalexin or cefmenoxime, in dependence on the addition level): elongation was inhibited
- Inhibition of growth of Escherichia coli ([2]; in the presence of cephalexin or cefmenoxime, decrease in absorbance): inhibits the growth of Escherichia coli
- Diameter of growth inhibition zone ([3]; F3 of Example 5, 1 μg/ml in test solution, 0.01 μg/ml of cefmenoxime): 9 mm
- Diameter of growth inhibition zone ([3]; F3 of Example 5, 1 μg/ml in test solution, 0.05 μg/ml of mecillinam): < 8 mm
- Diameter of growth inhibition zone [3, 8]: < 8 mm
- Diameter of growth inhibition zone ([3]; F3 of Example 5, 5 μg/ml in test solution, 0.01 μg/ml of cefmenoxime): 12 mm
- Diameter of growth inhibition zone ([3]; F3 of Example 5, 5 μg/ml in test solution, 0.05 μg/ml of mecillinam): 9 mm
- Diameter of growth inhibition zone [3, 9]: < 8 mm
- Diameter of growth inhibition zone ([3]; F3 of Example 5, 25 μg/ml in test solution, 0.01 μg/ml of cefmenoxime): 21 mm
- Diameter of growth inhibition zone ([3]; F3 of Example 5, 25 μg/ml in test solution, 0.05 μg/ml of mecillinam): 13.5 mm
- Diameter of growth inhibition zone [3, 10]: < 8 mm
- Diameter of growth inhibition zone ([3]; F3 of Example 5, 125 μg/ml in test solution, 0.01 μg/ml of cefmenoxime): 28.5 mm
- Diameter of growth inhibition zone ([3]; F3 of Example 5, 125 μg/ml in test solution, 0.05 μg/ml of mecillinam): 19 mm
- Diameter of growth inhibition zone [3, 11]: < 8 mm
- Diameter of growth inhibition zone ([3]; F3 of Example 5, 1000 μg/ml in test solution, 0.01 μg/ml of cefmenoxime): 32.5 mm
- Diameter of growth inhibition zone ([3]; F3 of Example 5, 1000 μg/ml in test solution, 0.05 μg/ml of mecillinam): 30 mm
- Diameter of growth inhibition zone [3, 12]: < 8 mm
- Diameter of growth inhibition zone ([4]; F3 of Example 5, 1 μg/ml in test solution, 0.03 μg/ml of mecillinam): < 8 mm
- Diameter of growth inhibition zone ([4]; F3 of Example 5, 1 μg/ml in test solution, 0.05 μg/ml of cefmenoxime): 10 mm
- Diameter of growth inhibition zone [4, 8]: < 8 mm
- Diameter of growth inhibition zone ([4]; F3 of Example 5, 5 μg/ml in test solution, 0.03 μg/ml of mecillinam): < 8 mm
- Diameter of growth inhibition zone ([4]; F3 of Example 5, 5 μg/ml in test solution, 0.05 μg/ml of cefmenoxime): 12.5 mm
- Diameter of growth inhibition zone [4, 9]: < 8 mm
- Diameter of growth inhibition zone ([4]; F3 of Example 5, 25 μg/ml in test solution, 0.03 μg/ml of mecillinam): 9 mm
- Diameter of growth inhibition zone ([4]; F3 of Example 5, 25 μg/ml in test solution, 0.05 μg/ml of cefmenoxime): 15 mm
- Diameter of growth inhibition zone [4, 10]: < 8 mm
- Diameter of growth inhibition zone ([4]; F3 of Example 5, 125 μg/ml in test solution, 0.03 μg/ml of mecillinam): 17.5 mm
- Diameter of growth inhibition zone ([4]; F3 of Example 5, 125 μg/ml in test solution, 0.05 μg/ml of cefmenoxime): 26 mm
- Diameter of growth inhibition zone [4, 11]: < 8 mm
- Diameter of growth inhibition zone ([4]; F3 of Example 5, 1000 μg/ml in test solution, 0.03 μg/ml of mecillinam): 28.5 mm
- Diameter of growth inhibition zone ([4]; F3 of Example 5, 1000 μg/ml in test solution, 0.05 μg/ml of cefmenoxime): 38 mm
- Diameter of growth inhibition zone [4, 12]: < 8 mm
- Absorbance at 600 nm ([5]; final F3 (Example 5) 1 μg/ml, 1 μg/ml of cefmenoxime): 2.2
- Absorbance at 600 nm ([5]; final F3 (Example 5) 1 μg/ml, no addition): 3.7
- Absorbance at 600 nm ([5]; final F3 (Example 5) 10 μg/ml, 1 μg/ml of cefmenoxime): 0.6
- Absorbance at 600 nm ([5]; final F3 (Example 5) 10 μg/ml, no addition): 3.7
- Absorbance at 600 nm ([5]; final F3 (Example 5) 100 μg/ml, 1 μg/ml of cefmenoxime): 0.6
- Absorbance at 600 nm ([5]; final F3 (Example 5) 100 μg/ml, no addition): 3.7

Compound: CC(=O)NC1C(OC2CC(C(=O)NCCS(=O)(=O)O)NC2CO)OC(CO)C(O)C1O (stereo not shown) [F4]
- Diameter of growth inhibition zone ([4]; F4 of Example 7, 10 μg/ml in test solution, 0.03 μg/ml mecillinam): < 8 mm
- Diameter of growth inhibition zone ([4]; F4 of Example 7, 10 μg/ml in test solution, 0.05 μg/ml cefmenoxime): < 8 mm
- Diameter of growth inhibition zone ([4]; F4 of Example 7, 10 μg/ml in test solution, no addition): < 8 mm
- Diameter of growth inhibition zone ([4]; F4 of Example 7, 100 μg/ml in test solution, 0.03 μg/ml mecillinam): 13 mm
- Diameter of growth inhibition zone ([4]; F4 of Example 7, 100 μg/ml in test solution, 0.05 μg/ml cefmenoxime): 15 mm
- Diameter of growth inhibition zone ([4]; F4 of Example 7, 100 μg/ml in test solution, no addition): < 8 mm
- Diameter of growth inhibition zone ([4]; F4 of Example 7, 1000 μg/ml in test solution, 0.03 μg/ml mecillinam): 23 mm
- Diameter of growth inhibition zone ([4]; F4 of Example 7, 1000 μg/ml in test solution, 0.05 μg/ml cefmenoxime): 26 mm
- Diameter of growth inhibition zone ([4]; F4 of Example 7, 1000 μg/ml in test solution, no addition): < 8 mm

Compound: CO/N=C(\C(=O)N[C@@H]1C(=O)N2C(C(=O)O)=C(CSc3nnnn3C)CS[C@H]12)c1csc(N)n1 [cefmenoxime, reference compound]
- Form of cells under phase contrast microscope (Escherichia coli): much elongated form
- Absorbance at 600 nm ([2]; 1 μg/ml cefmenoxime alone (F2 or F3 0 μg/ml)): 1.95 and 1.90 and 2.9
- Diameter of growth inhibition zone ([3]; 0.01 μg/ml cefmenoxime alone (F2 or F3 0 μg/ml)): < 8 mm
- Diameter of growth inhibition zone ([4]; 0.05 μg/ml cefmenoxime alone (F2, F3 or F4 0 μg/ml)): < 8 mm

Compound: CC1=C(C(=O)O)N2C(=O)[C@@H](NC(=O)[C@H](N)c3ccccc3)[C@H]2SC1 [cephalexin, reference compound]
- Form of cells under phase contrast microscope (Escherichia coli): much elongated form
- Absorbance at 600 nm ([2]; 5 μg/ml cephalexin alone (F2 0 μg/ml)): 2.35 and 2.15

Compound: O=C(O)[C@H]1/C(=C/CO)O[C@@H]2CC(=O)N21 [clavulanic acid]
- Potentiation of activity of β-lactam antibiotics against β-lactamase producing bacteria [6]: synergistically potentiates their activity
- Inactivation of β-lactam antibiotics by β-lactamases (β-lactamases): prevents inactivation

Compound: CC(=O)NC1C(OC2CC(C(=O)NCCS(=O)(=O)O)NC2CO)OC(CO)C(OS(=O)(=O)O)C1O (stereo not shown) [disodium salt of F2]
- Solubility (Solubility; acetone): Insoluble
- Solubility (Solubility; dimethyl sulfoxide): soluble
- Solubility (Solubility; ethanol and pyridine): spargingly soluble; also recorded: sparingly soluble
- Solubility (Solubility; methanol): spargingly soluble; also recorded: sparingly soluble
- Solubility (Solubility; [7]): Insoluble
- Solubility (Solubility; water): readily soluble
- Stability [1]: Stable

Compound: CC1(C)S[C@@H]2[C@H](/N=C/N3CCCCCC3)C(=O)N2[C@H]1C(=O)O [mecillinam, reference compound]
- Diameter of growth inhibition zone ([3]; 0.05 μg/ml mecillinam alone (F2 or F3 0 μg/ml)): < 8 mm
- Diameter of growth inhibition zone ([4]; 0.03 μg/ml mecillinam alone (F2, F3 or F4 0 μg/ml)): < 8 mm

Compound: CC(=O)NC1C(OC2CC(C(=O)NCCS(=O)(=O)O)NC2CO)OC(CO)C(OS(=O)(=O)O)C1O (stereo not shown) [monosodium salt of F2]
- Solubility (Solubility; acetone): sparingly soluble
- Solubility (Solubility; dimethyl sulfoxide): soluble
- Solubility (Solubility; ethanol and pyridine): sparingly soluble
- Solubility (Solubility; methanol): soluble
- Solubility (Solubility; [7]): Insoluble
- Solubility (Solubility; water): readily soluble
- Stability [1]: Stable
